Test: Aqueous solubility of hydroxamic acid compounds
Type: physicochemical
Details: deionized water, pH 5.5, stirred overnight, filtered, 1H NMR quantification
Description: The aqueous solubility was measured and the partition coefficient was computed for nineteen hydroxamic acid compounds. To measure the aqueous solubility, a supersaturated solution of each hydroxamic acid compound was prepared in deionized water. The pH was adjusted to 5.5 using nitric acid and the supersaturated solution was stirred overnight. Excess solids were removed via filtration and the hydroxamic acid compound in solution was quantified using 1H NMR with a t-BuOH standard. […] It was not possible to achieve super saturation for the 2-furohydroxamic acid compound. […] The partition coefficients were computed using the procedure described in Wildman, Scott A. and Crippen, Gordon M., Prediction of Physicochemical Parameters by Atomic Contributions, J. Chem. Inf. Comput. Sci. 1999, 39, 5, 868-873. Briefly, an atom type classification system was used for an atom-based calculation of the partition coefficient (log P) and the molar refractivity (MR).

Compound | Aqueous Solubility [%]
4-Fluoro hydroxamic acid | 1.0
O=C(COCc1ccccc1)NO [Benzyloxyacetohydroxamic acid] | 1.8
O=C(NO)c1ccccc1 [Benzohydroxamic acid] | 3.6
COc1ccccc1C(=O)NO [2-Methoxybenzohydroxamic acid] | 1.1
Cc1ccccc1C(=O)NO [2-Methylbenzohydroxamic acid] | 3.3
COc1ccc(C(=O)NO)cc1 [4-Methoxybenzohydroxamic acid] | 0.4
N#Cc1ccc(C(=O)NO)cc1 [4-Cyano-N-hydroxybenzamide] | 0.5
Cc1ccc(CCCC(=O)NO)cc1 [4-(p-tolyl)butyrohydroxamic acid] | 0.2
O=C(NO)c1ccco1 [2-furohydroxamic acid] | >17.8
2-Fluoro hydroxamic acid | 1.0
CCCCCCCC(=O)NO [Octanohydroxamic acid] | 0.2
O=C(CCCc1ccccc1)NO [4-Phenylbutyrl hydroxamic acid] | 1.6
O=C(C=Cc1ccccc1)NO [Cinnamohydroxamic acid] | 0.6
CCCCCC(=O)NO [Hexanohydroxamic acid] | 4.8
O=C(Cc1ccccc1)NO [N-hydroxy-2-phenyl-acetamide] | 1.5
O=C(NO)c1ccccn1 [Picolinichydroxamic acid] | 3.0
3-Fluoro hydroxamic acid | 1.3
Cc1ccc(C(=O)NO)cc1 [4-Methylbenzohydroxamic acid] | 0.5
